The results in this text go back to ChEMBL document CHEMBL5260832, “Hepatoprotective natural triterpenoids” (Eur J Med Chem, 2018).

Holding throughout (assay type): functional
For one experiment, the system named is L02. Put plainly: Hepatoprotective activity against D-GaIN-induced toxicity in human HL7702 cells assessed as inhibition of cell survival rate at 10 uM relative to control.
Another experiment has as its system Mus musculus. Kind of experiment: Hepatoprotective activity against D-GaIN/CCl4 induced liver injury mouse model assessed as reduction in GPT level at 30 microg/kg, iv relative to control. The arrangement: scale not given: the % may be the effect or the level left. To be noted: dose 30 µg/kg.
In another experiment the test system is Hepatocyte. Kind of experiment: Hepatoprotective activity against D-GaIN/LPS induced liver injury in rat hepatocytes assessed as cell death at 10 to 500 uM relative to control. To be noted: dose 10-500 µM.

As to `C=C(C)[C@@H]1CC[C@]2(C(=O)O[C@@H]3O[C@H](C(=O)OCC)[C@@H](O)[C@H](O)[C@H]3O[C@@H]3OC[C@@H](O)[C@H](O)[C@H]3O)CC[C@]3(C)[C@H](CC[C@@H]4[C@@]5(C)CC[C@H](O)C(C)(C)[C@@H]5CC[C@]43C)[C@@H]12`, the Activity with L02 was found to be 48.3%. `CC(C)=CCC[C@@](C)(O)[C@H]1CC[C@]2(C)[C@@H]1[C@H](O)C[C@@H]1[C@@]3(C)CC[C@H](O)C(C)(C)[C@@H]3[C@@H](O[C@@H]3O[C@H](CO)[C@@H](O)[C@H](O)[C@H]3O[C@@H]3O[C@H](CO)[C@@H](O)[C@H](O)[C@H]3O)C[C@]12C`: the Activity with Mus musculus is 73%. In the case of `CCCCOC(=O)[C@H]1O[C@@H](O[C@H]2CC[C@]3(C)[C@H]4CC=C5[C@@H]6CC(C)(C)CC[C@]6(C(=O)O[C@@H]6O[C@H](CO)[C@@H](O)[C@H](O)[C@H]6O)CC[C@@]5(C)[C@]4(C)CC[C@H]3C2(C)C)[C@H](O[C@@H]2O[C@H](CO)[C@@H](O)[C@H](O)[C@H]2O)[C@@H](O)[C@@H]1O[C@@H]1OC[C@H](O)[C@H](O)[C@H]1O`, the Activity in the experiment on L02 is on record as 48.3%. `CCCCOC(=O)[C@H]1O[C@@H](O[C@H]2CC[C@]3(C)[C@H]4CC=C5[C@@H]6CC(C)(C)CC[C@]6(C(=O)O[C@@H]6O[C@H](CO)[C@@H](O)[C@H](O)[C@H]6O[C@@H]6OC[C@@H](O)[C@H](O)[C@H]6O)CC[C@@]5(C)[C@]4(C)CC[C@H]3C2(C)C)[C@H](O[C@@H]2O[C@H](CO)[C@@H](O)[C@H](O)[C@H]2O[C@@H]2O[C@@H](C)[C@H](O)[C@@H](O)[C@H]2O)[C@@H](O)[C@@H]1O`: the Activity with L02 was 54.7%. On to `C[C@@H]1O[C@@H](O[C@H]2[C@H](O[C@H]3[C@H](O[C@H]4CC[C@@]5(C)[C@@H](CC[C@]6(C)[C@@H]5CC=C5[C@@H]7CC(C)(C)C[C@@H](O)[C@]7(C)CC[C@]56C)[C@@]4(C)CO)O[C@H](C(=O)O)[C@@H](O)[C@@H]3O)O[C@H](CO)[C@H](O)[C@@H]2O)[C@H](O)[C@H](O)[C@H]1O` [SOYASAPONIN I], for which the Activity in the experiment with Hepatocyte amounted to 0%.

With `C[C@@H]1O[C@@H](O[C@H]2[C@H](O[C@H]3[C@H](O[C@H]4CC[C@@]5(C)[C@@H](CC[C@]6(C)[C@@H]5CC=C5[C@@H]7CC(C)(C)[C@H](O[C@@H]8O[C@H](CO)[C@@H](O)[C@H](O)[C@H]8O)C[C@]7(C)CC[C@]56C)[C@@]4(C)CO)O[C@H](C(=O)O)[C@@H](O)[C@@H]3O)OC[C@@H](O)[C@@H]2O)[C@H](O)[C@H](O)[C@H]1O`, the Activity in the experiment on Hepatocyte was 0%. For `CCCCOC(=O)[C@H]1O[C@@H](O[C@H]2CC[C@]3(C)[C@H]4CC=C5[C@@H]6[C@@H](C)[C@H](C)CC[C@]6(C(=O)O[C@@H]6O[C@H](CO)[C@@H](O[C@@H]7O[C@@H](C)[C@H](O)[C@@H](O)[C@H]7O)[C@H](O)[C@H]6O)CC[C@@]5(C)[C@]4(C)CC[C@H]3C2(C)C)[C@H](O[C@@H]2O[C@H](CO)[C@@H](O)[C@H](O)[C@H]2O[C@@H]2O[C@@H](C)[C@H](O)[C@@H](O)[C@H]2O)[C@@H](O)[C@@H]1O`, the Activity in the experiment with L02 turned out to be 32.2%.

For `C=C(C)[C@@H]1CC[C@]2(C(=O)O)CC[C@]3(C)[C@H](CC[C@@H]4[C@@]5(C)CC[C@H](O[C@@H]6O[C@H](C(=O)OCC)[C@@H](O)[C@H](O)[C@H]6O[C@@H]6OC[C@@H](O)[C@H](O)[C@H]6O)C(C)(C)[C@@H]5CC[C@]43C)[C@@H]12`, in the experiment with L02, the Activity is given as 32.8%. Still for that read-out and setting: to `CCOC(=O)[C@H]1O[C@@H](O[C@H]2CC[C@]3(C)[C@H]4CC=C5[C@@H]6CC(C)(C)CC[C@]6(C(=O)O)CC[C@@]5(C)[C@]4(C)CC[C@H]3C2(C)C)[C@H](O[C@@H]2O[C@H](CO)[C@@H](O)[C@H](O)[C@H]2O[C@@H]2OC[C@@H](O)[C@H](O)[C@H]2O)[C@@H](O)[C@@H]1O` belongs 44.8%. As for `C[C@@H]1O[C@@H](O[C@H]2[C@H](O[C@H]3[C@H](O[C@H]4CC[C@@]5(C)[C@@H](CC[C@]6(C)[C@@H]5CC=C5[C@@H]7CC(C)(C)C[C@@H](O[C@@H]8O[C@H](CO)[C@@H](O)[C@H](O)[C@H]8O)[C@]7(C)CC[C@]56C)[C@@]4(C)CO)O[C@H](C(=O)O)[C@@H](O)[C@@H]3O)O[C@H](CO)[C@H](O)[C@@H]2O)[C@H](O)[C@H](O)[C@H]1O`, the Activity in the experiment on Hepatocyte stood at 0%.

On to `C[C@@H]1O[C@@H](O[C@H]2[C@H](O[C@H]3[C@H](O[C@H]4CC[C@@]5(C)[C@@H](CC[C@]6(C)[C@@H]5CC=C5[C@@H]7CC(C)(C)C[C@@H](O)[C@]7(C)CC[C@]56C)[C@@]4(C)CO)O[C@H](C(=O)O)[C@@H](O)[C@@H]3O)OC[C@@H](O)[C@@H]2O)[C@H](O)[C@H](O)[C@H]1O`, for which the Activity in the experiment on Hepatocyte came to 0%.

For the molecule `CC1(C)CC[C@]2(C(=O)O)CC[C@]3(C)C(=CC[C@@H]4[C@@]5(C)CC[C@H](O)[C@@](C)(CO)[C@@H]5CC[C@]43C)[C@@H]2C1` [HEDERAGENIN], in the experiment on L02, the Activity was 62.4%. Still for that read-out and setting: to `CC1(C)C[C@H]2C3=CC[C@@H]4[C@@]5(C)C=CC(=O)C(C)(C)[C@@H]5CC[C@@]4(C)[C@]3(C)CC[C@@]2(C(=O)O)C[C@@H]1O` belongs 76.8%; to `C[C@@H]1O[C@@H](O[C@H]2[C@H](O[C@H]3[C@H](O[C@H]4CC[C@]5(C)[C@H]6CC=C7[C@@H]8CC(C)(C)CC[C@]8(C(=O)O[C@@H]8O[C@H](CO)[C@@H](O)[C@H](O)[C@H]8O)CC[C@@]7(C)[C@]6(C)CC[C@H]5C4(C)C)O[C@H](C(=O)O)[C@@H](O)[C@@H]3O)O[C@H](CO)[C@@H](O)[C@@H]2O)[C@H](O)[C@H](O)[C@H]1O`, 87.3%. Same read-out and setting: the value for `COC(=O)c1cc(OC)c2c(c1-c1c(CO)cc(OC)c3c1OCO3)OCO2` [BICYCLOL] was 26.2%. Take `C[C@@H]1O[C@@H](O[C@H]2[C@H](O[C@H]3[C@H](O[C@H]4CC[C@@]5(C)[C@@H](CC[C@]6(C)[C@@H]5CC=C5[C@@H]7CC(C)(C)C[C@@H](O[C@@H]8O[C@@H](C)[C@H](O)[C@@H](O)[C@H]8O)[C@]7(C)CC[C@]56C)[C@@]4(C)CO)O[C@H](C(=O)O)[C@@H](O)[C@@H]3O)O[C@H](CO)[C@H](O)[C@@H]2O)[C@H](O)[C@H](O)[C@H]1O`: the Activity in the experiment with Hepatocyte is on record as 0%. On to `C[C@@H]1O[C@@H](O[C@H]2[C@H](O[C@H]3[C@H](O[C@H]4CC[C@@]5(C)[C@@H](CC[C@]6(C)[C@@H]5CC=C5[C@@H]7CC(C)(C)CC(=O)[C@]7(C)CC[C@]56C)[C@@]4(C)CO)O[C@H](C(=O)O)[C@@H](O)[C@@H]3O)O[C@H](CO)[C@H](O)[C@@H]2O)[C@H](O)[C@H](O)[C@H]1O`, for which the Activity in the experiment on Hepatocyte was 0%. `CCOC(=O)[C@H]1O[C@@H](O[C@H]2CC[C@]3(C)[C@H]4CC=C5[C@@H]6CC(C)(C)CC[C@]6(C(=O)O[C@@H]6O[C@H](CO)[C@@H](O[C@@H]7O[C@@H](C)[C@H](O)[C@@H](O)[C@H]7O)[C@H](O)[C@H]6O)CC[C@@]5(C)[C@]4(C)CC[C@H]3C2(C)C)[C@H](O[C@@H]2O[C@H](CO)[C@@H](O)[C@H](O)[C@H]2O[C@@H]2O[C@@H](C)[C@H](O)[C@@H](O)[C@H]2O)[C@@H](O)[C@@H]1O`: in the experiment on L02, the Activity was determined as 81.4%.

For `C[C@@H]1O[C@@H](O[C@H]2[C@H](O[C@H]3[C@H](O[C@H]4CC[C@@]5(C)[C@@H](CC[C@]6(C)[C@@H]5CC=C5[C@@H]7C[C@@](C)(CO[C@@H]8O[C@H](CO)[C@@H](O)[C@H](O)[C@H]8O)C[C@@H](O)[C@]7(C)CC[C@]56C)[C@@]4(C)CO)O[C@H](C(=O)O)[C@@H](O)[C@@H]3O)O[C@H](CO)[C@H](O)[C@@H]2O)[C@H](O)[C@H](O)[C@H]1O`, the Activity in the experiment with Hepatocyte is listed as 0%.

As for `CCOC(=O)[C@H]1O[C@@H](O[C@H]2CC[C@]3(C)[C@H]4CC=C5[C@@H]6CC(C)(C)CC[C@]6(C(=O)O[C@@H]6O[C@H](CO)[C@@H](O)[C@H](O)[C@H]6O[C@@H]6O[C@H](COC(C)=O)[C@@H](O)[C@H](O)[C@H]6O)CC[C@@]5(C)[C@]4(C)CC[C@H]3C2(C)C)[C@H](O[C@@H]2O[C@H](CO)[C@@H](O)[C@H](O)[C@H]2O[C@@H]2O[C@@H](C)[C@H](O)[C@@H](O)[C@H]2O)[C@@H](O)[C@@H]1O`, in the experiment on L02, the Activity came out at 75.7%. For the molecule `C[C@@H]1O[C@@H](O[C@H]2[C@H](O[C@H]3[C@H](O[C@H]4CC[C@@]5(C)[C@@H](CC[C@]6(C)[C@@H]5CC=C5[C@@H]7CC(C)(C)[C@@H](O[C@@H]8OC[C@@H](O)[C@H](O)[C@H]8O)[C@@H](O)[C@]7(C)CC[C@]56C)[C@@]4(C)CO)O[C@H](C(=O)O)[C@@H](O)[C@@H]3O)O[C@H](CO)[C@H](O)[C@@H]2O)[C@H](O)[C@H](O)[C@H]1O`, the Activity with Hepatocyte is listed as 0%. The same measure, in the same setting: the value for `C[C@@H]1O[C@@H](O[C@H]2[C@H](O[C@H]3[C@H](O[C@H]4CC[C@@]5(C)[C@@H](CC[C@]6(C)[C@@H]5CC=C5[C@@H]7CC(C)(C)[C@H](O[C@@H]8O[C@H](CO)[C@@H](O)[C@H](O)[C@H]8O)C[C@]7(C)CC[C@]56C)[C@@]4(C)CO)O[C@H](C(=O)O)[C@@H](O)[C@@H]3O)O[C@H](CO)[C@H](O)[C@@H]2O)[C@H](O)[C@H](O)[C@H]1O` was 0%. On to `C[C@@H]1O[C@@H](O[C@H]2[C@H](O[C@H]3[C@H](O[C@H]4CC[C@]5(C)[C@H]6CC=C7[C@@H]8CC(C)(C)CC[C@]8(C(=O)O)CC[C@@]7(C)[C@]6(C)CC[C@H]5C4(C)C)O[C@H](C(=O)O)[C@@H](O)[C@@H]3O)O[C@H](CO)[C@@H](O)[C@@H]2O)[C@H](O)[C@H](O)[C@H]1O`, for which the Activity in the experiment with L02 was 56.8%.
